# According to patent US11505521B2 (Biothea Pharma, Inc., priority 2018, dated 2022):
# Where a name gives a salt, the structure may show the parent alone. Read-outs that look alike come from different tables or passages of the source.
# Key:
# [1] = sublingual tablet of Example 3, 10 mg epinephrine base, receptor pH 7.4, 37° C.
# Description: The in-vitro permeability of the pharmaceutical compositions of Example 3 were tested. The tests were conducted using drug transdermal diffusion test instruments (Brand Huanghai, Model No. RJY-6B), Sartorius balances (Model SQP), an INESA pH meter (Model PHS-3E), a Thermo HPLC (UltiMate 3000 System, UV Wavelength: 205 nm), and Phenomenex Luna columns (5 μm C18 (2), 4.6×250 mm). The column temperature was 40° C. and the autosampler temperature was room temperature. The injection volume was 5 μL.
# (§1) Mobile Phase A was prepared by weighing 4.0 g tetramethylammonium bisulfate (MERYER, Batch No. 77957139) and 1.1 sodium 1-heptasulfonate (Admas-beta, Batch No. P1343755), and transferring the materials to a flask. 2 mL of 0.1 mol/L EDTA solution (Brand: Sinopharm Chemical Reagent Co., Ltd., Batch No. 20150410) was added to the flask and the volume was adjusted to 950 mL using water. The solution was mixed and adjusted to a pH of 3.5 with 0.1N sodium hydroxide solution (Brand: Enox, Batch No. 20161201). Mobile Phase B was prepared using methanol. The isocratic elution was used in a proportion of A/B of 85/15. The run time was 10 minutes.
# The in vitro diffusion of epinephrine salts were evaluated using Franz cells with an OD of 20 mm and reservoir volume of 7 mL. Dialysis membranes (Spectra/Por® dialysis membranes with 1,000 Da MWCO) were used to simulate sublingual mucous membrane in the vitro permeability tests. The assay content of the active components was detected in receiving pools. A receptor chamber with a magnetic stirrer was filled with phosphate buffer solution (pH 7.4) as the diffusion medium. The water bath was set at 37° C., and water was circulated in the Franz cells.
# Each tablet was placed at the center of the donor chamber on the membrane at T0, and 2 mL of the artificial saliva (Brand: Biomart, Brand No. GL0305) was added to facilitate tablet disintegration and dissolution. Aliquots of 1 mL were withdrawn from the receptor chamber at 10, 30, 60, 90, and 120 min. The volumes withdrawn were replenished with fresh medium. Samples were transferred to HPLC vials for HPLC analysis.
# [2] = Description: The stability of the pharmaceutical compositions of Example 3 were tested. The stability studies were conducted on packaged epinephrine salts at 25° C./RH 60% and 40° C./RH 75% conditions, as well as samples without packaging and exposed to light (4500 Lux) for one month. The appearance, assay content, and related substances were examined at 5, 7, 14 and 30 days.
# The assay content was tested using Sartorius balances (Model SQP), an INESA pH meter (Model PHS-3E), a Thermo HPLC (UltiMate 3000 System, UV Wavelength: 205 nm), and Phenomenex Luna columns (5 μm C18 (2), 4.6×250 mm). The column temperature was 40° C., and the autosampler temperature was room temperature. The injection volume was 5 μL.
# as §1
# The assay content was analyzed by dissolving 20 mg of each sample to be examined in 50 mL of Mobile Phase A (0.4 mg/mL) as assay test solution. The sample was used and tested right after it was ready and was protected from light.
# The purity was tested using Sartorius balances (Model SQP), an INESA pH meter (Model PHS-3E), a Thermo HPLC (UltiMate 3000 System, UV Wavelength: 205 nm), and PhenomenexSynergi columns (4 μm Polar-RP 80 A 250×4.6 mm). The column temperature was 30° C., and the autosampler temperature was room temperature. The injection volume was 5 μL.
# Mobile Phase A was prepared by weighing 1.136 g of potassium dihydrogen orthophosphate (Brand: CNW, Batch No. A1040040) and 1.74 g of dipotassium hydrogen orthophosphate (Brand: Ourchem, Batch No. 20160219) and transferring into 1000 mL of water. The pH was adjusted to 3.0±0.05 with orthophosphoric acid (Brand: Ourchem, Batch No. 4112K060). The solution was filtered through a 0.45 μm membrane and degassed. Mobile Phase B was prepared using methanol. The run time was 50 minutes.
# The purity was analyzed by dissolving 10 mg of each sample to be examined in 25 mL of Mobile Phase A (0.4 mg/mL) as purity and related substance test solution. The sample was used and tested right after it was ready and was protected from light.
# [3] = physchem
# Description: (§2) The tests were conducted using Sartorius balances (Model SQP), a Thermo HPLC (UltiMate 3000 System, UV Wavelength: 205 nm), and Phenomenex Luna columns (5 μm C18 (2), 4.6×250 mm). The column temperature was 40° C. and the autosampler temperature was room temperature. The injection volume was 5 μL.
# as §1, with “using ethanol.” for “using methanol.”, “was 8” for “was 10”
# A standard solution was used comprising 10 mg of the standard dissolved in 10 mL of water. The test solution solutions were prepared and water was added at 25±2° C. Every 5 minutes, the solution was sonicated for 30 seconds. The dissolution was observed within 30 minutes to make sure the solution was saturated. The solution was filtered through a 0.45 μm membrane and the solution was diluted to test.
# [4] = 20 mg in 20 mL water, 25° C.
# Description: The tests were conducted using Sartorius balances (Model SQP) and a pH meter (Brand: INESA, Model No. PHS-3E). 20 mg of the sample was weighed and transferred into a 20 mL volumetric flask with the remainder of the volume comprising water. The solution was mixed. The pH meter was calibrated with pH 4.0 and pH 6.8 standard buffer solutions at 25° C.
# [5] = physchem; conditions: titrated with 0.1 mol/L NaOH
# Description: The tests were conducted using Sartorius balances (Model SQP) and a potentiometric titrator (Brand: Methrom, Model No. 905 Titrando). 0.17 g of the sample was weighed and transferred into a 50 mL volumetric flask with the remainder of the volume comprising deonized water. The solution was mixed. The solution was titrated with a 0.1 mol/L NaOH solution using a pH indicator to indicate the end point.
# [6] = physchem; conditions: n-octanol / pH 3.47 buffer
# Description: as §2
# as §1, with “using ethanol.” for “using methanol.”, “was 8” for “was 10”
# A hydrogen disodium phosphate solution was prepared by weighing 7.1 g of hydrogen disodium phosphate (Brand: Sinopharm Chemical Reagent Co., Ltd., Batch No. 20150910). A citric acid solution was prepared by weighing 5.25 g of hydrated citric acid (Brand: General-Reagent, Batch No. 5949-29-1) and dissolving it in 1000 mL of water. A pH 3.47 buffer solution was prepared by adjusting the pH of the hydrogen disodium phosphate solution to 3.47 with the citric acid solution. An n-octanol buffer solution was prepared by mixing 100 mL of n-octanol (Brand: Chinasun Specialty Products Co., Ltd., Batch No. 20160601) and 100 mL of the pH 3.47 buffer solution, vibrated for 24 hours, which sat for an hour to separate the n-octanol phase and the pH 3.47 buffer phase.
# 10 mg of the sample was dissolved in 10 mL of the saturated n-octanol solution and mixed completely. 10 mL of the saturated pH 3.47 buffer solution was added and vortexed at 3000 r/min for 1 hour. 1 mL of solution was pipetted from the n-octanol and pH 3.47 phase after an hour. A standard solution was prepared containing 1 mg/mL of the standard in diluent. An LOQ solution was prepared from about 0.1% of the standard solution. An n-octanol phase solution was diluted with 1 mL of methanol to test. The pH 3.47 phase solution was injected directly. The partition coefficient was calculated using the following formula:
# [formula] wherein Co is the equilibrium concentration of solute in oil phase, and Cw is the equilibrium concentration of solute in water phase.
# [7] = light 4500 Lux, under air, 5 days
# [8] = light 4500 Lux, under air, 7 days
# [9] = light 4500 Lux, under air, 14 days
# [10] = light 4500 Lux, under air, 30 days
compound,measurement,setting,value
"CNC[C@H](O)c1ccc(O)c(O)c1 [epinephrine base, epinephrine]",Diffusion content (%) 120 min,[1],10.5%
same,Related substance (%),"[2]; 25° C./60% RH, 0 days",0.13%
same,Content (%),"[2]; 25° C./60% RH, 5 days",100.03%
same,Related substance (%),"[2]; 25° C./60% RH, 5 days",0.14%
same,Content (%),"[2]; 25° C./60% RH, 7 days",99.73%
same,Related substance (%),"[2]; 25° C./60% RH, 7 days",0.14%
same,Content (%),"[2]; 25° C./60% RH, 14 days",99.84%
same,Related substance (%),"[2]; 25° C./60% RH, 14 days",0.12%
same,Content (%),"[2]; 25° C./60% RH, 30 days",99.78%
same,Related substance (%),"[2]; 25° C./60% RH, 30 days",0.14%
same,Related substance (%),"[2]; 40° C./75% RH, 0 days",0.13%
same,Related substance (%),"[2]; 40° C./75% RH, 5 days",0.16%
same,Content (%),"[2]; 40° C./75% RH, 7 days",100.67%
same,Related substance (%),"[2]; 40° C./75% RH, 7 days",0.15%
same,Content (%),"[2]; 40° C./75% RH, 14 days",98.97%
same,Related substance (%),"[2]; 40° C./75% RH, 14 days",0.17%
same,Content (%),"[2]; 40° C./75% RH, 30 days",100.62%
same,Related substance (%),"[2]; 40° C./75% RH, 30 days",0.20%
same,Related substance (%),"[2]; light 4500 Lux, under air, 0 days",0.13%
same,Content (%),[2]; [7],100.53%
same,Related substance (%),[2]; [7],0.15%
same,Content (%),[2]; [8],99.27%
same,Related substance (%),[2]; [8],0.18%
same,Content (%),[2]; [9],99.21%
same,Related substance (%),[2]; [9],0.18%
same,Content (%),[2]; [10],98.24%
same,Related substance (%),[2]; [10],0.21%
CNC[C@H](O)c1ccc(O)c(O)c1 [epinephrine hydrochloride],Diffusion content (%) 120 min,[1]; hydrochloride,44.0%
epinephrine hemi sulfate,Solubility,[3],17.7 mg/mL
same,pH,[4],7.14
epinephrine fumarate,Solubility,"[3]; water, 25±2° C.",38.9 mg/mL
same,pH,[4],3.77
same,pKa,[5],4.28
same,LogP,[6],−3.00
same,Diffusion content (%) 120 min,[1],54.4%
